From patent publication US6486126B1, “Antioxidant activity in SDG metabolites” (University of Saskatchewan Technologies Incorporated, priority 1999, dated 2002)
Like-named read-outs stand apart in the source and are kept apart here.

Columns and labels:
[1] = tested on: zymosan-stimulated polymorphonuclear leukocytes; test: Luminol-dependent chemiluminescence of zymosan-stimulated PMNLs in blood (PMNL-CL); assay type: cell-based, human; conditions: for inhibition at 1000 µg/mL / inhibition at 2500 µg/mL / inhibition at 5000 µg/mL: Homo sapiens, Leukocyte; for antioxidant potency as compared to vitamin E: ratio of inhibition of PMNL-CL at 2.5 mg/ml, relative to vitamin E
Method: (§1) Antioxidant activity of SDG, SECO, ED, EL and vitamin E (alpha-tochopherol phosphate) was measured using the ability of these compounds to reduce the chemiluminescence of activated PMNLs [polymorphonuclear leukocytes chemiluminescence (PMNL-CL)]. Activated polymorphonuclear leukocytes produce superoxide anion (O2^−), hydrogen peroxide (H2O2), hydroxyl radical (.OH) and singlet oxygen (^1O2). Chemiluminescence is amplified by luminol, which is converted to an excited aminophthalate ion in the presence of oxidizing species like O2^−, H2O2, .OH and ^1O2. Luminol-dependent CL reflects the amount of activated oxygen species generated from activated phagocytes, thus, this method can be used to monitor the reactive oxygen species produced by PMNLs. Agents which scavenge O2^−, H2O2, .OH and ^1O2 would reduce PMNL-CL. The SDG, SECO, ED and EL were all obtained from Agriculture and Agri-Food Canada, Saskatoon, Saskatchewan.
(§2) Venous blood from healthy subjects, after their informed consent, was collected in ethylenediamine tetraacetic acid (EDTA)-containing tubes for PMNL counts, and PMNL-CL. PMNL and WBC counts were made using Technicon H6000 system (Technicon Instruments, Tarrytown, N.Y.). PMNL-CL a measure of reactive oxygen species produced by PMNLs was measured by a method described in Prasad et al., Effect of polymorphonuclear leukocyte-derived oxygen free radicals and hypochlorous acid or cardiac function and some biochemical parameters, Am. Heart J. 119:538-550, 1990. Blood (0.05 ml) was added to a glass tube containing Hank's balanced salt solution (HBSS) buffer (pH 7.40) and luminol at a final concentration of 10^−4 M. To assess the ability of various test materials in the varying amounts (1.0, 2.5, 5.0 and 10 mg/ml) in the powder form, were each added to the test tube containing blood, shaken well and incubated for 15 minutes at room temperature. The final volume of the mixture in these tubes was 0.5 ml. All the test tubes were placed in a luminometer for 5 min at 37° C., and phagocytosis was initiated by the addition of 0.1 ml (10 mg/ml) of opsonized zymosan prepared by previously described method (Prasad et al., 1990). The chemiluminescence was monitored with an Auto Lumat, LB953 luminometer (Egg Berthold, Berthold Analytical Instrument Inc., 472 Amherst Street, Nashua, N.H., 03063) for 3 seconds every 2 or 3 minutes (depending on the sample number) for a period of 60 minutes. The integrated area under the curve gives the total luminal-dependent chemiluminescent response during the period of monitoring, which represents the oxygen derived CL. The difference in the integrated area under zymosan-activated in the absence and in the presence of various compounds under investigation is designated as particular compound inhibitable oxygen derived radical CL. The unit for chemiluminescence is in counts per minute (cpm). The integrated area under the curve is in cpm.m. The unit for chemiluminescence is cpm.m.10^−6 PMNLs because the chemiluminescence is expressed in terms of 10^−6 PMNL counts. The peak chemiluminescence is cpm 10^−6 PMNLs.
The results are expressed as mean±SE and n=sample size. One-way Analysis of Variance (ANOVA) followed by Scheffe test was used to derive differences between different groups. A “p” value of less than 0.05 was considered significant.

unstimulated blood (BL) = test: Integrated luminol-dependent chemiluminescence of unstimulated blood; assay type: cell-based, human; conditions: 2.5 mg/ml, mean ± SE from 16 samples
Method: as §1
as §2, with “The difference in the integrated area under zymosan-activated in the absence and in the presence of various compounds under investigation is designated as particular compound inhibitable oxygen derived radical CL. The unit for chemiluminescence is in counts per minute (cpm). The integrated area under the curve is in cpm.m. The unit for chemiluminescence is cpm.m.10^−6 PMNLs because the chemiluminescence is expressed in terms of 10^−6 PMNL counts. The peak chemiluminescence is cpm 10^−6 PMNLs.” left out
The results are expressed as mean±SE and n=sample size. […]

[2] = 2.5 mg/ml, concentration-response (FIGS. 4-8)
[3] = 5.0 mg/ml, concentration-response (FIGS. 4-8)
[4] = 10.0 mg/ml, concentration-response (FIGS. 4-8)
[5] = zymosan-stimulated, 2.5 mg/ml, comparison experiment (FIG. 3)
[6] = 1.0 mg/ml, concentration-response (FIGS. 4-8)
[7] = 2.5 mg/ml, concentration-response (FIGS. 4-8), read-out: inhibition of zymosan-stimulated PMNL-CL
[8] = zymosan-stimulated, 2.5 mg/ml, comparison experiment (FIG. 3), read-out: percentage inhibition of PMNL-CL

SMILES: Cc1c(C)c2c(c(C)c1OP(=O)(O)O)CC[C@@](C)(CCC[C@H](C)CCC[C@H](C)CCCC(C)C)O2 [vitamin E, alpha-tochopherol phosphate, reference compound]
- effect on zymosan-stimulated PMNL-CL (in words) ([1]; 1.0 mg/ml): increase in the PMNL-CL
- inhibition of zymosan-stimulated PMNL-CL [1, 2]: 17%
- inhibition of zymosan-stimulated PMNL-CL [1, 3]: 88%
- inhibition of zymosan-stimulated PMNL-CL [1, 4]: 97%
- percentage inhibition of PMNL-CL [1, 5]: 18.75%

SMILES: OC[C@H](Cc1cccc(O)c1)[C@H](CO)Cc1cccc(O)c1 [ED, enterodiol]
- Integrated CL of unstimulated blood (BL) in the presence of compound (unstimulated blood (BL)): 1.073 ± 0.048 ×10^6 cpm · m · 10^−6 PMNLs
- inhibition at 1000 µg/mL [1, 6]: 82%
- inhibition at 2500 µg/mL [1, 7]: 96%
- inhibition at 5000 µg/mL [1, 3]: 95%
- inhibition at 2500 µg/mL [1, 8]: 94.2%
- antioxidant potency as compared to vitamin E [1]: 5.02 times
- antioxidant potency relative to SDG (times more potent than SDG) [1]: 3.95 times

SMILES: COc1cc(C[C@@H](CO)[C@H](CO)Cc2ccc(O)c(OC)c2)ccc1O [SECO, secoisolariciresinol]
- Integrated CL of unstimulated blood (BL) in the presence of compound (unstimulated blood (BL)): 0.878 ± 0.023 ×10^6 cpm · m · 10^−6 PMNLs
- inhibition of zymosan-stimulated PMNL-CL [1, 6]: 78%
- inhibition of zymosan-stimulated PMNL-CL [1, 2]: 93%
- inhibition of zymosan-stimulated PMNL-CL [1, 3]: 99.5%
- inhibition of zymosan-stimulated PMNL-CL [1, 4]: 100%
- antioxidant potency as compared to vitamin E [1]: 4.86 times
- antioxidant potency relative to SDG (times more potent than SDG) [1]: 3.82 times
- percentage inhibition of PMNL-CL [1, 5]: 91.2%

SMILES: COc1cc(C[C@@H](CO[C@@H]2O[C@H](CO)[C@@H](O)[C@H](O)[C@H]2O)[C@H](CO[C@@H]2O[C@H](CO)[C@@H](O)[C@H](O)[C@H]2O)Cc2ccc(O)c(OC)c2)ccc1O [SDG, secoisolariciresinol diglucoside, reference compound]
- Integrated CL of unstimulated blood (BL) in the presence of compound (unstimulated blood (BL)): 2.463 ± 0.159 ×10^6 cpm · m · 10^−6 PMNLs
- inhibition of zymosan-stimulated PMNL-CL [1, 6]: 24%
- inhibition of zymosan-stimulated PMNL-CL [1, 2]: 30%
- inhibition of zymosan-stimulated PMNL-CL [1, 3]: 48%
- antioxidant potency as compared to vitamin E [1]: 1.27 times
- percentage inhibition of PMNL-CL [1, 5]: 23.87%

SMILES: O=C1OC[C@H](Cc2cccc(O)c2)[C@H]1Cc1cccc(O)c1 [EL, enterolactone]
- Integrated CL of unstimulated blood (BL) in the presence of compound (unstimulated blood (BL)): 2.177 ± 0.138 ×10^6 cpm · m · 10^−6 PMNLs
- inhibition at 1000 µg/mL [1, 6]: 81%
- inhibition at 2500 µg/mL [1, 7]: 86%
- inhibition at 5000 µg/mL [1, 3]: 83%
- inhibition at 2500 µg/mL [1, 8]: 81.6%
- antioxidant potency as compared to vitamin E [1]: 4.35 times
- antioxidant potency relative to SDG (times more potent than SDG) [1]: 3.43 times
